From BindingDB's records for doi:10.1016/j.bmc.2014.04.022 (Tohoku Pharmaceutical University, 2014)

Tests used:
[1] = Antagonist activity at estrogen receptor in human MCF7 cells assessed as inhibition of estradiol-induced cell proliferation after 5 days by WST-8 assay
[2] = Agonist activity at estrogen receptor in human MCF7 cells assessed as induction of cell proliferation after 5 days by WST-8 assay

IC50 [1]: 1060 nM
EC50 [2]: 16 nM
Structure (SMILES): CN(C)CCOc1ccc(C23CC4CC(CC(c5ccc(O)cc5)(C4)C2)C3)cc1
